Measured values taken from patent US20200078379A1, “DEFEROXAMINE DERIVATIVES AS MEDICAMENTS” (BIOTECHNOLOGICKY USTAV AV CR, V.V.I., priority 2017, published 2020).
Like-named read-outs stand apart in the source and are kept apart here.

Assays:
[1] = test system: MCF7 cells; assay: AnnexinV/PI cell death assay; format: cell-based, human; settings: for mean percentage of dead cells (AnnexinV/PI): 48 hrs
Method: Briefly, cells were seeded in 12-well plate at 100,000 per well, incubated with the selected compounds for 48 hours, then floating cells were spun, adherent cells trypsinized and spun as well followed by the staining with AnnexinV-FITC and PI probes. Cells were then washed with PBS and measured via Fluorescence Activated Sorter.

[2] = test system: AsPC-1 cells; assay: crystal violet assay, cellular viability; format: cell-based; settings: Homo sapiens, ASPC1, AsPC-1, 48 hours
[3] = test system: CFPAC-1 cells; assay: crystal violet assay, cellular viability; format: cell-based; settings: Homo sapiens, CFPAC-1, 48 hours
[4] = test system: MCF7 cells; assay: crystal violet assay, cellular viability; format: cell-based, human
[5] = test system: T47D cells; assay: crystal violet assay, cellular viability; format: cell-based; settings: for IC50: Homo sapiens
[6] = test system: BxPC-3 cells; assay: crystal violet assay, cellular viability; format: cell-based; settings: Homo sapiens, BxPC-3, 48 hours
[7] = test system: SK-OV-3 cells; assay: crystal violet assay, cellular viability; format: cell-based; settings: Homo sapiens, SK-OV-3, 48 hours
[8] = test system: MCF7 cells; assay: cellular proliferation in real time, Xcelligence technology; format: cell-based
Method: (§1) The ability of compound 2 to affect the proliferation and cell death induction in real time was monitored by the Xcelligence technology that detects changes in electrical impedance related to the cell number. In brief, special 16-well e-plates containing gold electrodes were filled with medium, blank values were recorded, and then 5.000 cells per well were seeded in the plate and let to attach for 2 hours, followed by the addition of compounds. The electrical impedance was then monitored over time in real-time every 15 minutes. In this case a line is drawn that reflects the cell number over time. […] We have seen a clear inhibition of proliferation with compound 2 at 1 μM, complete block of proliferation at 2 μM concentration, while the cytotoxic effect is seen at 5 μM (Table 9).

[9] = test system: murine triple negative breast cancer cells line 4T1; assay: tumor growth in vivo, 4T1 model; parameters: species or system Balb/c gamma mice; settings: for Relative tumor size: 4T1, 8 mg/kg i.p. twice per week
Method: In order to define the effect of compound 2 on tumor growth and progression in vivo, we tested its effect on the model of syngeneic murine triple negative breast cancer cells line 4T1, Balb/c gamma mice being the […] host. Mice were injected with 1 million of cells s.c. on the right flank. After appearance of tumors (15-60 mm^3) mice were randomized into two separate group, one receiving corn oil (control) and one receiving compound 2 at 8 mg/kg. Tumor progression was then monitored by ultrasound imaging Vevo770 and mice received the treatment twice per week, i.p. in approximately 100 ul of corn oil.

[10] = test system: non malignant cells (BJ); assay: AnnexinV/PI cell death assay; format: cell-based; settings: for mean percentage of dead cells (AnnexinV/PI): 48 hrs
Method: To confirm such findings by an independent method, cell death-inducing potency (cytotoxic efficacy) of DFO and compound 2 have been tested via annexin V/PI staining commonly used as a measure of apoptotic/necrotic cell death. Briefly, cells were seeded in 12-well plate at 100,000 per well, incubated with the selected compounds for 48 hours, then floating cells were spun, adherent cells trypsinized and spun as well followed by the staining with AnnexinV-FITC and PI probes. Cells were then washed with PBS and measured via Fluorescence Activated Sorter.
We have then analyzed the percentage of death cells by the annexinV/PI staining as described in example 7. We have observed a significant potentiation in cell death induction when gallium was combined with compound 2 (Table 14)

[11] = test system: non malignant cells (BJ); assay: cellular proliferation in real time, Xcelligence technology; format: cell-based, human
Method: as §1

[12] = test system: BT474 cells; assay: crystal violet assay, cellular viability; format: cell-based; settings: for IC50: Homo sapiens, BT-474
[13] = test system: tamoxifen-resistant T47D (Tam5R); assay: crystal violet assay, tamoxifen resistant cells; format: cell-based; settings: Homo sapiens, grown in 5 μM tamoxifen
Method: (§2) Compound 1 and compound 2 were tested in their efficacy to kill malignant MCF7 cancer cells. Briefly, 10.000 cells per well were seeded in a 96-well plat on one day and the next day selected compounds were added and incubated with the cells for 48 hrs. The cells were then fixed with 4% paraformaldehyde, stained with 0.05% crystal violet, washed with PBS, and solubilized in 1% SDS. The absorbance of the plate at 595 nm was then measured, quantifying the number of viable cells.
(§3) To test whether compound 2 is active against resistant cancer cells, we used tamoxifen-resistant MCF7, T47D and BT474 cell lines. The IC50 values were again measured with the crystal violet assay performed as in example 18. We have documented that there is no statistically significant difference in the ability of compound 2 to induce cytostatic and cytotoxic effects between the parental cells sensitive to tamoxifen and the resistant ones that grow even in the presence of tamoxifen (Table 4).

[14] = test system: tamoxifen-resistant MCF7 (Tam5R); assay: crystal violet assay, tamoxifen resistant cells; format: cell-based; settings: Homo sapiens, grown in 5 μM tamoxifen
Method: as §2, §3

[15] = test system: tamoxifen-resistant BT474 (Tam5R); assay: crystal violet assay, tamoxifen resistant cells; format: cell-based; settings: Homo sapiens, BT-474, grown in 5 μM tamoxifen
Method: as §2, §3

CC(=O)N(O)CCCCCNC(=O)CCC(=O)N(O)CCCCCNC(=O)CCC(=O)N(O)CCCCCN(CCCCCCCCCC[P+](c1ccccc1)(c1ccccc1)c1ccccc1)CCCCCCCCCC[P+](c1ccccc1)(c1ccccc1)c1ccccc1.[Cl-].[Cl-] [Compound 2, Triphenyl(3,14,25-trihydroxy-2,10,13,21,24-pentaoxo-31-(10-(triphenylphosphonio)decyl)-3,9,14,20,25,31-hexaazahentetracontan-41-yl)phosphonium chloride]
mean percentage of dead cells (AnnexinV/PI) ([1]; MCF7, 5 μM): 35.6%
mean percentage of dead cells (AnnexinV/PI) ([1]; MCF7, 10 μM): 43.7%
mean percentage of dead cells (AnnexinV/PI) ([1]; MCF7, 20 μM): 64.0%
percentage of death cells by annexinV/PI staining ([1]; MCF7, ratio Ga:compound 2 0:1, 10 μM compound 2 alone): 35.3 (0.5)
IC50 [2]: 2600 nM
IC50 [3]: 6900 nM
Selectivity index (IC50 non-malignant/IC50 malignant) ([4]; BJ vs MCF7, 48 hours): 12.43
IC50 ([4]; Homo sapiens, MCF7, 48 h, crystal violet, read-out: IC50 cellular viability): 1200 nM
IC50 ([4]; Homo sapiens, MCF7, MCF7 Parental, read-out: IC50 crystal violet): 1500 nM
viability at 1 µM ([4]; Homo sapiens, MCF7, 1 μM, 48 hrs, crystal violet, read-out: mean percentage of viable cells compared to non-treated controls): 56.9%
viability at 2 µM ([4]; Homo sapiens, MCF7, 2 μM, 48 hrs, crystal violet, read-out: mean percentage of viable cells compared to non-treated controls): 20%
viability at 5 µM ([4]; Homo sapiens, MCF7, 5 μM, 48 hrs, crystal violet, read-out: mean percentage of viable cells compared to non-treated controls): 10%
viability at 10 µM ([4]; Homo sapiens, MCF7, 10 μM, 48 hrs, crystal violet, read-out: mean percentage of viable cells compared to non-treated controls): 12.1%
Selectivity index (IC50 non-malignant/IC50 malignant) ([5]; BJ vs T47D, 48 hours): 4.77
IC50 ([5]; T47D Parental, read-out: IC50 crystal violet): 3000 nM
IC50 ([5]; T47D, 48 hours, crystal violet, read-out: IC50 cellular viability): 3000 nM
IC50 [6]: 1700 nM
IC50 [7]: 5100 nM
slope of the line (relative number of cells in relation to time) ([8]; MCF7, 0-15 h, 1 μM): 0.32
slope of the line (relative number of cells in relation to time) ([8]; MCF7, 0-15 h, 2 μM): 0.40
slope of the line (relative number of cells in relation to time) ([8]; MCF7, 0-15 h, 5 μM): 0.31
slope of the line (relative number of cells in relation to time) ([8]; MCF7, 0-36 h, 1 μM): 0.35
slope of the line (relative number of cells in relation to time) ([8]; MCF7, 0-36 h, 2 μM): −0.01
slope of the line (relative number of cells in relation to time) ([8]; MCF7, 0-36 h, 5 μM): −0.47
concentration at which the cytotoxic effect is seen ([8]; Xcelligence, MCF7): 5 µM
concentration with clear inhibition of proliferation ([8]; Xcelligence, MCF7): 1 µM
concentration with complete block of proliferation ([8]; Xcelligence, MCF7): 2 µM
effect on relative tumor growth, in words ([9]; 4T1, 8 mg/kg): significantly reduces relative tumor growth
Relative tumor size ([9]; Day 0): 1.0
Relative tumor size ([9]; Day 4): 1.3
Relative tumor size ([9]; Day 7): 1.1
Relative tumor size ([9]; Day 11): 1.4
Relative tumor size ([9]; Day 14): 1.6
Relative tumor size ([9]; Day 18): 2.5
mean percentage of dead cells (AnnexinV/PI) ([10]; 5 μM): 6.7%
mean percentage of dead cells (AnnexinV/PI) ([10]; 10 μM): 9.0%
mean percentage of dead cells (AnnexinV/PI) ([10]; 20 μM): 29.8%
concentrations at which toxic effect could be detected in non-malignant BJ cells ([10]; AnnexinV/PI, 48 hours): higher than 2004
percentage of death cells by annexinV/PI staining ([10]; ratio Ga:compound 2 0:1, 10 μM compound 2 alone): 9.0 (3.5)
slope of the line (relative number of cells in relation to time) ([11]; 0-15 h, 1 μM): 1.14
slope of the line (relative number of cells in relation to time) ([11]; 0-15 h, 2 μM): 1.07
slope of the line (relative number of cells in relation to time) ([11]; 0-15 h, 5 μM): 0.83
slope of the line (relative number of cells in relation to time) ([11]; 0-36 h, 1 μM): 1.08
slope of the line (relative number of cells in relation to time) ([11]; 0-36 h, 2 μM): 0.90
slope of the line (relative number of cells in relation to time) ([11]; 0-36 h, 5 μM): 0.47
effect on cellular proliferation of non-malignant BJ cells, in words ([11]; Xcelligence, 5 μM): very mild and statistically non-significant effect
Selectivity index (IC50 non-malignant/IC50 malignant) ([12]; BJ vs BT474, 48 hours): 4.33
IC50 ([12]; BT474, 48 hours, crystal violet, read-out: IC50 cellular viability): 3300 nM
IC50 ([12]; BT474 Parental, read-out: IC50 crystal violet): 3300 nM
IC50 [13]: 1200 nM
IC50 [14]: 2100 nM
IC50 [15]: 4200 nM
